Values quoted from earlier work, collected in patent US20140349957A1, “Compositions for Photodynamic Therapy Chemically Modified to Increase Epithelia Penetration and Cellular Bioavailability” (YAGNA LIMITED, priority 2011, published 2014).

Tested on: cells which have incorporated the drug

Cc1cn([C@H]2C[C@H](O)[C@@H](CO)O2)c(=O)[nH]c1=S [4 thiothymidine, 4-thiothymidine]
toxicity of exposure to drug alone (drug alone, no UV-A): does not result in appreciable toxicity
toxicity to cells upon excitation (excitation at 335 nm (UV-A)): results in toxicity to the cells which have incorporated the drug
